From paper PMC2854649 (Biochemical and biophysical research communications, 2009)
Like-named read-outs stand apart in the source and are kept apart here.

Legend:
CD1 mice = format: in vivo, mouse; conditions: for Percent Surviving: CD1 mice, survival recorded for 24 hrs
CD3+ human PBMCs = test: Radiation-induced apoptosis; format: cell-based; conditions: CD3+ human PBMCs exposed to 20 Gy radiation, Figure 1
C57Bl/6J mice = format: in vivo, mouse; conditions: 2 mg in 200 μL saline via tail-vein injection, N=6
male C57Bl/6 mice = test: Post-exposure treatment after lethal total body irradiation; format: in vivo, mouse; conditions: 1 mg dose, data not shown
[1] = tested on: primary human lymphocytes (PBMCs); test: Cellular uptake and subcellular distribution of FITC-labeled peptides; format: cell-based; conditions: 5 μM fluorescein-labeled peptide, 1 h, RPMI with 10% FBS or serum-free PBS

(d) ^1-Ac-RKKRR-Orn-RRR-COOH [TAT, reference compound]
Percent Surviving (CD1 mice; 2 mg i.p.): 100% | Percent Surviving (CD1 mice; 5 mg i.p.): 0%

(d) ^1-Ac-RKKRR-Orn-RRR-β-A-(l) ^1-SNRELVVDFLSDKLSQKGDS-COOH [TAT-BH4i]
Effect on radiation-induced apoptosis, in words (CD3+ human PBMCs): Neither TAT-BH4i nor NLS-BH4i had any appreciable effect

(d) ^1-Ac-RKKRR-Orn-RRR-β-A-(l) ^1-SNRELVVDFLSYKLSQKGYS-COOH [TAT-BH4]
Time to death following injection (C57Bl/6J mice): 3 to 5 min | Appearance of mice the following day (CD1 mice; 2 mg i.p.): appeared normal | Percent Surviving (CD1 mice; 2 mg i.p.): 100% | Percent Surviving (CD1 mice; 5 mg i.p.): 75% | Appearance of surviving mice the following day (CD1 mice; 5 mg or 20 mg i.p., necropsy: distended and edematous bowel, small necrotic foci): piloerection and distended abdomens | Percent Surviving (CD1 mice; 20 mg i.p.): 25%

Ac-KKKRKV-β-A-(l) ^1-SNRELVVDFLSDKLSQKGDS-COOH [NLS-BH4i]
Effect on radiation-induced apoptosis, in words (CD3+ human PBMCs): Neither TAT-BH4i nor NLS-BH4i had any appreciable effect

Ac-KKKRKV-β-A-(l) ^1-SNRELVVDFLSYKLSQKGYS-COOH [NLS-BH4]
Radiation-induced lymphocyte apoptosis in vivo (pilot study) (male C57Bl/6 mice): significantly attenuated radiation-induced lymphocyte apoptosis | Uptake by PBMCs (fluorescence intensity, flow cytometry) [1]: less dependent on the presence of serum | Percent Surviving (CD1 mice; 2 mg i.p.): 100% | Percent Surviving (CD1 mice; 10 mg i.p.): 100% | Percent Surviving (CD1 mice; 30 mg i.p.): 100% | Tolerability of i.p. injections (CD1 mice; 2, 5, or 0 mg i.p., N = 3 mice per group): without any apparent ill effects
